Data reported in publication doi:10.1101/2023.12.04.569845, “Identification of 4-(6-((2-methoxyphenyl)amino)pyrazin-2-yl)benzoic acids as CSNK2A inhibitors with antiviral activity and improved selectivity over PIM3” (bioRxiv, 2023).
Like-named read-outs stand apart in the source and are kept apart here.

Columns and labels:
Assay in all cases: biochemical
Design in all cases: Thermal shift (DSF, SYPRO Orange) Tm shift of recombinant kinase domains at 10 uM compound
[1] = molecular target: T1, MEK4 (Homo sapiens, UniProt P45985)
T1 construct: gene MAP2K4; kinase domain
T1 sequence (P45985 1-399): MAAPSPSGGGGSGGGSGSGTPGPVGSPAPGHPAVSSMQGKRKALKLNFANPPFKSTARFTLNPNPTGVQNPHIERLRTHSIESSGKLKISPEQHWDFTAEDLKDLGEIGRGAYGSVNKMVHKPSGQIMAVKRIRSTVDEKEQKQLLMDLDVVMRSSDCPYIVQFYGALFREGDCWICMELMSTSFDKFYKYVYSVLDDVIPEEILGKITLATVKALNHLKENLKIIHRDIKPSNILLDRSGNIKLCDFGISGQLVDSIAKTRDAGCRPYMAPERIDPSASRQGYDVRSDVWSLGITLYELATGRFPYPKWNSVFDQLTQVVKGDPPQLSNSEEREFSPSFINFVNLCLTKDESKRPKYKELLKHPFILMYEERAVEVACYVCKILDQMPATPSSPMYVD
Protocol: (§1) S23 Thermal stability kinase selectivity. The assay was performed as previously described. 9,10 Briefly, recombinant protein kinase domains at a concentration of 2 μM were mixed with 10 μM compound in a buffer containing 20 mM HEPES, pH 7.5, and 500 mM NaCl. SYPRO Orange (5000×, Invitrogen) was added as a fluorescence probe (1 µl per mL). Subsequently, temperature-dependent protein unfolding profiles were measured using the QuantStudio™ 5 realtime PCR machine (Thermo Fisher). […] The temperature was raised with a step rate of 3°C per minute. Data points were analysed with the internal software (Thermal Shift SoftwareTM Version 1.4, Thermo Fisher) using the Boltzmann equation to determine the inflection point of the transition curve.

[2] = molecular target: T2, MARK4 (Homo sapiens, UniProt Q96L34)
T2 sequence (Q96L34 1-752): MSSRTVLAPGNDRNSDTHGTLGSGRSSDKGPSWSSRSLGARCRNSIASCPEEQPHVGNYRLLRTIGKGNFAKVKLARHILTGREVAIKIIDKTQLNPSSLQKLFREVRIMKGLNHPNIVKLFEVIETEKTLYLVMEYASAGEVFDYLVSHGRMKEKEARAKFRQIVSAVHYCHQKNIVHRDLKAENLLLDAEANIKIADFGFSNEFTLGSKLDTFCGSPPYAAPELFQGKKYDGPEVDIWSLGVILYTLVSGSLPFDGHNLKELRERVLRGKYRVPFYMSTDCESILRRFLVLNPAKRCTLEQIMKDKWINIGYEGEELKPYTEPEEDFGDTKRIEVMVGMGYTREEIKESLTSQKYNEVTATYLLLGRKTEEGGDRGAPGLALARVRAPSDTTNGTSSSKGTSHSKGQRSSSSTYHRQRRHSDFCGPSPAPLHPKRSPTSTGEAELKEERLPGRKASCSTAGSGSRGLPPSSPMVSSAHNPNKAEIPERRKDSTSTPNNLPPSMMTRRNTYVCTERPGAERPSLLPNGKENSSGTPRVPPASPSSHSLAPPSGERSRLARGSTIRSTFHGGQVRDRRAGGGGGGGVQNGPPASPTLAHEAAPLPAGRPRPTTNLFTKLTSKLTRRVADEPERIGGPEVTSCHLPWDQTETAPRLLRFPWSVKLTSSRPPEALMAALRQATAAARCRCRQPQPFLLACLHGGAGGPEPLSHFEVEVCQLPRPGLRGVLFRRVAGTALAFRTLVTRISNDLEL
Protocol: as §1

[3] = molecular target: T3, PHKg2 (Homo sapiens, UniProt P15735)
T3 construct: kinase domain
T3 sequence (P15735 1-406): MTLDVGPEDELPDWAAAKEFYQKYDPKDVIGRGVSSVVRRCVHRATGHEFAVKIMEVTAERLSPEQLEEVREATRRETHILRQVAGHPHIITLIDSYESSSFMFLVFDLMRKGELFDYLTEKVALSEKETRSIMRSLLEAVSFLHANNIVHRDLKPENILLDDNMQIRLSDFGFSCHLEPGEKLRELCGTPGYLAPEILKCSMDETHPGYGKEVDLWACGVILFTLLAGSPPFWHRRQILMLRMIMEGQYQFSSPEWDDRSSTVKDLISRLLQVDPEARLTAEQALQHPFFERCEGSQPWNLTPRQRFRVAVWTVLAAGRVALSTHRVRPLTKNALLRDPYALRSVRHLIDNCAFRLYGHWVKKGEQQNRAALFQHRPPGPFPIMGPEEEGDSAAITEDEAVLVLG
Protocol: as §1

[4] = molecular target: WNK1 (Homo sapiens, UniProt Q9H4A3)
Sequence of WNK1 (Q9H4A3 whole entry): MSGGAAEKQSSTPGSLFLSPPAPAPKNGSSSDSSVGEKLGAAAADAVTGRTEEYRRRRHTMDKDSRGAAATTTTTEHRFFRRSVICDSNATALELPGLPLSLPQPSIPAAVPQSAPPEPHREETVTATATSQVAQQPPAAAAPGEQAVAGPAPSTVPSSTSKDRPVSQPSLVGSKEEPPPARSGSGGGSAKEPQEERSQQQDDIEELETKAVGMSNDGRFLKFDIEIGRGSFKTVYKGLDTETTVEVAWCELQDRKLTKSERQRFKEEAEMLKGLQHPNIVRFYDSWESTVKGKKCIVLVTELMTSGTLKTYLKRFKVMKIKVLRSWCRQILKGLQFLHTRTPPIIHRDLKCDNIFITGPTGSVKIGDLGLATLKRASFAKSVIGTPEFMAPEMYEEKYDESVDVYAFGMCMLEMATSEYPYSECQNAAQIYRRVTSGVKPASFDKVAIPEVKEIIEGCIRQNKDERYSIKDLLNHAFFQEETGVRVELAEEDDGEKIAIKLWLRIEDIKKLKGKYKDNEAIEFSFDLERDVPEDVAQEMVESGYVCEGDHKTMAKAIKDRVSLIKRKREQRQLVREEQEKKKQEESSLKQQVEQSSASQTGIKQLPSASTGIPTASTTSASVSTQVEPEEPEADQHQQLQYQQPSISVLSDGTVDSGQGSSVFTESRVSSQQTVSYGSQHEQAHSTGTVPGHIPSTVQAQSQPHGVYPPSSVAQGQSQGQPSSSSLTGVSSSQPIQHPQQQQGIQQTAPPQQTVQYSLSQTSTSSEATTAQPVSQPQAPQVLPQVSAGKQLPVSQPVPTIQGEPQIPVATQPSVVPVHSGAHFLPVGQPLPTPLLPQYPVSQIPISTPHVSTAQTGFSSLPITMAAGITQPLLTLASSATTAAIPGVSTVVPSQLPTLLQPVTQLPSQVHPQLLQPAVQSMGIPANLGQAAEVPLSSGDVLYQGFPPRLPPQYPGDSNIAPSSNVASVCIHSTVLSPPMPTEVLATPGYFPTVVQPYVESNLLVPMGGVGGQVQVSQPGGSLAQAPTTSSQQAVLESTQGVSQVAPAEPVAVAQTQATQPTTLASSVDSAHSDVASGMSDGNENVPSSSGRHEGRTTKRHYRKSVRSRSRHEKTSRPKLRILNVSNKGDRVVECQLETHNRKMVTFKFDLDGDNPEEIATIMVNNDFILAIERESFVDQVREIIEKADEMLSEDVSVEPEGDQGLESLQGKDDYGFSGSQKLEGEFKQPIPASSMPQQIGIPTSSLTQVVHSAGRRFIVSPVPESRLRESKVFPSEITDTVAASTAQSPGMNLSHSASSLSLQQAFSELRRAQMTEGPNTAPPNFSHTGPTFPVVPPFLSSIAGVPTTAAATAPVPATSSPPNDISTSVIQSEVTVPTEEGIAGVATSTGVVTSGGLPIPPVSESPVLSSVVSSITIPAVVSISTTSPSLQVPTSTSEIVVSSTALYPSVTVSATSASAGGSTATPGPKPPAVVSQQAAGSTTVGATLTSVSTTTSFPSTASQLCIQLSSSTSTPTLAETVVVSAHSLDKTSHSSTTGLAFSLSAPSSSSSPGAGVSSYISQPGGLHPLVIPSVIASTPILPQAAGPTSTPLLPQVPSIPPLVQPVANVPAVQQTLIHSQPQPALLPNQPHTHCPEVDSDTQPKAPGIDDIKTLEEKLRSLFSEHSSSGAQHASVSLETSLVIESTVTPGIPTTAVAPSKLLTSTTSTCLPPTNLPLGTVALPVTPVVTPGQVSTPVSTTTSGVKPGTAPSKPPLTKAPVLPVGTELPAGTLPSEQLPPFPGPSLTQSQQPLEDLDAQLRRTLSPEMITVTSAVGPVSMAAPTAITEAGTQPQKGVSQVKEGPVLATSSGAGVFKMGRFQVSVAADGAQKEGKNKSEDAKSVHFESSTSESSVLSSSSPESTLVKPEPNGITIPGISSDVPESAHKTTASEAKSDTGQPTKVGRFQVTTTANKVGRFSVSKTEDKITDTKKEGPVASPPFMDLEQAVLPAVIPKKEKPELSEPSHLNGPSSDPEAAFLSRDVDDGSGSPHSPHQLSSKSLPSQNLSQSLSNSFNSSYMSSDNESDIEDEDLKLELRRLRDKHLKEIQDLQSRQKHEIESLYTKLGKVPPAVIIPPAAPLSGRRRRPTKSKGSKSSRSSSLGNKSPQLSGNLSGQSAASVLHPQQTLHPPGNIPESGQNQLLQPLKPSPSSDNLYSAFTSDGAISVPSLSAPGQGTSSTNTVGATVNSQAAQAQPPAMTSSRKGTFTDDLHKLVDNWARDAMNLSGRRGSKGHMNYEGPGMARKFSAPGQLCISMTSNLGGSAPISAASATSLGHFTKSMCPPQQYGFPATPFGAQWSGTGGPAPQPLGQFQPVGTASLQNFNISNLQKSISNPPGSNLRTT
Protocol: as §1

[5] = molecular target: FLT1 (Homo sapiens, UniProt P17948)
Sequence of FLT1 (P17948 whole entry): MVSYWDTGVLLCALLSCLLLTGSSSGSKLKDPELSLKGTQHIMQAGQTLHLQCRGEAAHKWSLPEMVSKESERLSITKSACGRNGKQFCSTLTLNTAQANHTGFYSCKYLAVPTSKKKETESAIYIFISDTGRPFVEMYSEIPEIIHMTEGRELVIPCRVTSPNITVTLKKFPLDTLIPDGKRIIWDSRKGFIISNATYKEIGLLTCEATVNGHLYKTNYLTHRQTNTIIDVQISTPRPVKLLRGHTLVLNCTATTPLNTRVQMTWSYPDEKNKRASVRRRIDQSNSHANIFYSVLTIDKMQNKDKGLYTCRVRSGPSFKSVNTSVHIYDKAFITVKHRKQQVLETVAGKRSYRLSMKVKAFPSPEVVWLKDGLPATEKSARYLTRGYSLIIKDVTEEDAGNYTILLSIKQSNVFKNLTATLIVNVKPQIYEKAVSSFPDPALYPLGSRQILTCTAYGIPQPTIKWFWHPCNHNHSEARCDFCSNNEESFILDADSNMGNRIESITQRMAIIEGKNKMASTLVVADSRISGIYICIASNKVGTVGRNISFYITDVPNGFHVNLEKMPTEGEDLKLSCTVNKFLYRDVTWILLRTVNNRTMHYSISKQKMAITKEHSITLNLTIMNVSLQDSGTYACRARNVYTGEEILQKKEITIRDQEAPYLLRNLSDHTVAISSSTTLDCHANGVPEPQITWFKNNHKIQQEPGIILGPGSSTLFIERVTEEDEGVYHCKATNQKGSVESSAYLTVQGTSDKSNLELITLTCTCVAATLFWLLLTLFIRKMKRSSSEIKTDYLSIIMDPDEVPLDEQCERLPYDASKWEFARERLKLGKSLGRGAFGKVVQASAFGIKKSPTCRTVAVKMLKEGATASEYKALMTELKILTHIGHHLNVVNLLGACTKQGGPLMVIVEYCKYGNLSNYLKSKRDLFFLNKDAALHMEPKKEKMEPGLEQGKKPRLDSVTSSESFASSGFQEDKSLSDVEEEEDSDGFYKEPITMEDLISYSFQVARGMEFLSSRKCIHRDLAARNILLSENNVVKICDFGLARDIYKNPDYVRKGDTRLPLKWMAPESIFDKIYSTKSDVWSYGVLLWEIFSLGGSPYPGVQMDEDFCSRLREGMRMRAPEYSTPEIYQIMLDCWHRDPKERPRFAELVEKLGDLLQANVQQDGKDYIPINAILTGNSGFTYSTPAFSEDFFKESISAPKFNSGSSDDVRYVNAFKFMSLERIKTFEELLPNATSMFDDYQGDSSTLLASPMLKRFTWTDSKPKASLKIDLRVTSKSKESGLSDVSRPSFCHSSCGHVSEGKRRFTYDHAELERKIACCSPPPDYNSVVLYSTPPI
Protocol: as §1

[6] = molecular target: T4, MST2 (Homo sapiens, UniProt Q13188)
T4 construct: gene STK3
T4 sequence (Q13188 1-491): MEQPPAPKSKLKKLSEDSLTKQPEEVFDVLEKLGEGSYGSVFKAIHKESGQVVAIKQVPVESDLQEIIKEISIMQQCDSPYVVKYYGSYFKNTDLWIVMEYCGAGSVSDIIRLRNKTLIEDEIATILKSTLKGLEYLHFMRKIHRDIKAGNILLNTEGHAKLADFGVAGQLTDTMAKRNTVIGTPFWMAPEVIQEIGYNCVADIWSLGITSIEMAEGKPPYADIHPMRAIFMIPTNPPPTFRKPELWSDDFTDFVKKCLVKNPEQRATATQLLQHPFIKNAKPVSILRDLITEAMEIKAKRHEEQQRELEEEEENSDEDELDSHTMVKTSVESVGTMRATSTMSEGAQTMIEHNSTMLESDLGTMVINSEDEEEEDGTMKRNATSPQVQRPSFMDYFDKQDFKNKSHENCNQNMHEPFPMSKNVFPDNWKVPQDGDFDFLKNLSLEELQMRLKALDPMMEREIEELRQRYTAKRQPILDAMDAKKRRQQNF
Protocol: as §1

Structure (SMILES): CC(C)Oc1ccc2ccn(-c3cncc(-c4ccc(C(=O)O)cc4)n3)c2c1 [6c]
- ΔTm at 10 µM ([1]; read-out: 6c): 9 °C
- ΔTm at 10 µM ([2]; read-out: 6c): 1 °C
- ΔTm at 10 µM ([3]; read-out: 6c): 5 °C
- ΔTm at 10 µM ([4]; read-out: 6c): 2 °C
- ΔTm at 10 µM ([5]; read-out: 6c): 7 °C
- ΔTm at 10 µM ([6]; read-out: 6c): 3 °C

Structure (SMILES): COc1ccc(OC(C)C)cc1Nc1cncc(-c2ccc(C(=O)O)cc2)n1 [7c]
- ΔTm at 10 µM ([1]; read-out: 7c): 2 °C
- ΔTm at 10 µM ([2]; read-out: 7c): 0 °C
- ΔTm at 10 µM ([3]; read-out: 7c): 3 °C
- ΔTm at 10 µM ([4]; read-out: 7c): 0 °C
- ΔTm at 10 µM ([5]; read-out: 7c): 5 °C
- ΔTm at 10 µM ([6]; read-out: 7c): 2 °C

Structure (SMILES): CC(C)Nc1ccc2cnn(-c3cncc(-c4ccc(C(=O)O)cc4)n3)c2c1 [compound 2, 2]
- ΔTm at 10 µM ([1]; read-out: 2): 5 °C
- ΔTm at 10 µM ([2]; read-out: 2): 1 °C
- ΔTm at 10 µM ([3]; read-out: 2): 8 °C
- ΔTm at 10 µM ([4]; read-out: 2): 1 °C
- ΔTm at 10 µM ([5]; read-out: 2): 7 °C
- ΔTm at 10 µM ([6]; read-out: 2): 4 °C
